Measured values as given in patent US7414059B2, “Pyrazolyl and imidazolyl pyrimidines as CRF antagonists” (Roche Palo Alto LLC, priority 2003, dated 2008).
Counter-ions that a name gives are not always drawn.

Experiments:
CRF1 receptor = target: T1, CRF1 receptor (Homo sapiens, UniProt P34998); experiment: CRF1 Receptor Binding Assay; settings: competition binding with [125I]Tyr0-ovine CRF, human IMR-32 neuroblastoma cell membranes; pKi derived from pIC50
T1 construct: Cell membranes are prepared according the method of Dieterich and DeSouza (1996); endogenous in cells; host or cells: IMR-32 human neuroblastoma cells (membrane preparation)
T1 sequence (P34998 24-415): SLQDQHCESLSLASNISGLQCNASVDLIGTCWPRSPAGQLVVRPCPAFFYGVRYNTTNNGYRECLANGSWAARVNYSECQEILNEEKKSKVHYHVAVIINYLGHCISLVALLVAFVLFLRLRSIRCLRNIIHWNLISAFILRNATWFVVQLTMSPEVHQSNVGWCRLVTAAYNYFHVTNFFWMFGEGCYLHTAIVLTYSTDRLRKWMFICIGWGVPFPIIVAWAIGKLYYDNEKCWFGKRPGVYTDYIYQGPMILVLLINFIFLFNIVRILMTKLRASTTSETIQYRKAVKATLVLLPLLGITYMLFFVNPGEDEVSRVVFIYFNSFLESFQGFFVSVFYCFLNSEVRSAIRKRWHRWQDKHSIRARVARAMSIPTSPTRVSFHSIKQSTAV
Description: CRF1 Receptor Binding Assay
Human IMR-32 neuroblastoma cells are grown to 80% confluence in MEM medium containing 10% heat-inactivated FBS, lmM Sodium Pyruvate, and 0.1 mM nonessential amino acids. Cell membranes are prepared according the method of Dieterich and DeSouza (1996). The cells (˜5E+9) are resuspended in 10 volumes of wash buffer (5 mM Tris HCl, 10 mM MgCl2, 2 mM EGTA, pH 7.4 at RT), homogenized with a Polytron, and then centrifuged at 45,000 G for 20 min at 4° C. The membrane pellets are washed twice with wash buffer (45,000 G for 20 min at 4° C.) and then resuspended (50 mM Tris HCl, 10 mM MgCl2, 2 mM EGTA, pH 7.4 at RT). Protein concentration is determined using Pierce reagents and BSA as standard. Aliquots of 1-1.5 mL are stored at −80° C. until binding assay.
The competition binding assay is performed in a final volume of 250 μl, which contains assay buffer (50 mM Tris-HCl, 10 mM MgCl2, 2 mM EGTA, 0.2% BSA, 0.1 mM bacitracin and 100 kIU/mL aprotinin pH 7.2 at R.T.), 0.05 nM [^125I]Tyr^0-ovine CRF (Du Pont New England Nuclear), 50 μg of membrane protein, and test compound at various concentrations. Non-specific binding is determined with 1 uM hCRF. Binding reactions are terminated after 2 hr incubation at 25° C. by filtering through 96-w GF/C filter plate using a Packard Harvester (Filtermate 196). The 96-w filter plate is pre-treated with 0.3% polyethyleneimine and pre-washed with washing buffer (50 mM Tris-HCl, 10 mM MgCl2, 2 mM EGTA, 0.2% BSA, pH 7.2 at 4° C.). Unbound radioactivity is removed by four rapid washes (0.8 ml/well) with wash buffer. The radioactivity is quantified using a Packard TopCount. Data are analyzed using non-linear iterative curve fitting to obtain IC50 and Hill slope values. PKi values are derived from pIC50 values (−log of IC50).

melting point [°C] | Ki (CRF1 receptor) [µM] | Compound
245 to 247 |  | Cc1ccn(-c2cc(Nc3c(Cl)cc(Cl)cc3Cl)nc(C)n2)n1 (as salt: hydrochloride) [[2-Methyl-6-(3-methyl-pyrazol-1-yl)-pyrimidin-4-yl]-(2,4,6-trichloro-phenyl)-amine]
 | 1.62 | CCCc1ccn(-c2nc(C)nc(Nc3c(Cl)cc(Cl)cc3Cl)c2C)n1 [[2,5-Dimethyl-6-(3-propyl-pyrazol-1-yl)-pyrimidin-4-yl]-(2,4,6-trichloro-phenyl)-amine]
 | 1.07 | Cc1ccn(-c2cc(Nc3c(Cl)cc(Cl)cc3Cl)nc(C)n2)n1 [[2-Methyl-6-(3-methyl-pyrazol-1-yl)-pyrimidin-4-yl]-(2,4,6-trichloro-phenyl)-amine]
 | 1.91 | Cc1cn(-c2nc(C)nc(Nc3c(Cl)cc(Cl)cc3Cl)c2Cl)cn1 [[5-Chloro-2-methyl-6-(4-methyl-imidazol-1-yl)-pyrimidin-4-yl]-(2,4,6-trichloro-phenyl)-amine]
